Calls of active or inactive are those of the source.
How the values were obtained:
[1] = target: T1, Replicative DNA helicase DnaB (Mycobacterium tuberculosis, UniProt P9WMR3); assay: DnaB intein splicing inhibitors, dose response, biochemical, cell-free fluorescence (AID 449749); format: functional
T1 sequence (P9WMR3 whole entry): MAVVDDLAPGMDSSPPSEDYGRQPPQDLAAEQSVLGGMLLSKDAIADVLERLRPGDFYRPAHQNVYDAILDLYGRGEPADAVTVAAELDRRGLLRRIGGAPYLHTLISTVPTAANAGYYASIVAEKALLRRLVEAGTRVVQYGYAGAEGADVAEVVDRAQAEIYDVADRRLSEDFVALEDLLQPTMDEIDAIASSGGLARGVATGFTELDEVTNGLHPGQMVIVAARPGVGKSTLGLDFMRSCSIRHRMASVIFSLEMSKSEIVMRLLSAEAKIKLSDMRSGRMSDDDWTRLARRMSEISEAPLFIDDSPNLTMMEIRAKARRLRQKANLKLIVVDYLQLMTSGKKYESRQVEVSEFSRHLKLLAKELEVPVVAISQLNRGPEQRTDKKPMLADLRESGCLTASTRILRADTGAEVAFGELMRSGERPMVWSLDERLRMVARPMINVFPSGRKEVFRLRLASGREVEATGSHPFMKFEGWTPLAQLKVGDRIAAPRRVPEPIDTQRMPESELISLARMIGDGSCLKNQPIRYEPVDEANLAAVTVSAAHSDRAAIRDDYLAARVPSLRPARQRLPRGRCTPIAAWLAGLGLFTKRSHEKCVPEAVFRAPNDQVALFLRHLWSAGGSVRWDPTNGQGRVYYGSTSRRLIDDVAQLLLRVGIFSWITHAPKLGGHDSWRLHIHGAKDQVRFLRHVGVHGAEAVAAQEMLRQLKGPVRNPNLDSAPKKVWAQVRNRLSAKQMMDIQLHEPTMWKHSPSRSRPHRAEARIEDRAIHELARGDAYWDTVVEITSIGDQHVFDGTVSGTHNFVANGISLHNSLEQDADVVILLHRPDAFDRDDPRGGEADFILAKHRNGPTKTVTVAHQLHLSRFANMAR

[2] = target: T2, Serine/threonine-protein phosphatase (Candida dubliniensis (strain CD36 / CBS 7987 / NCPF 3949 / NRRLY-17841) (Yeast), UniProt B9W6M3); assay: blockers of CaCl2-induced CDRE-lacZ signaling – S. cerevisiae, luminescence, secondary, dose response (AID 2388); format: functional, cell-based;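 also: yeast reporter cells carrying a calcineurin-responsive lacZ construct stimulated with calcium chloride; luminescent beta-galactosidase reporter signal in whole cells rather than isolated phosphatase activity; potency for inhibition where a drop in reporter signal means calcineurin blockade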
T2 sequence (B9W6M3 whole entry): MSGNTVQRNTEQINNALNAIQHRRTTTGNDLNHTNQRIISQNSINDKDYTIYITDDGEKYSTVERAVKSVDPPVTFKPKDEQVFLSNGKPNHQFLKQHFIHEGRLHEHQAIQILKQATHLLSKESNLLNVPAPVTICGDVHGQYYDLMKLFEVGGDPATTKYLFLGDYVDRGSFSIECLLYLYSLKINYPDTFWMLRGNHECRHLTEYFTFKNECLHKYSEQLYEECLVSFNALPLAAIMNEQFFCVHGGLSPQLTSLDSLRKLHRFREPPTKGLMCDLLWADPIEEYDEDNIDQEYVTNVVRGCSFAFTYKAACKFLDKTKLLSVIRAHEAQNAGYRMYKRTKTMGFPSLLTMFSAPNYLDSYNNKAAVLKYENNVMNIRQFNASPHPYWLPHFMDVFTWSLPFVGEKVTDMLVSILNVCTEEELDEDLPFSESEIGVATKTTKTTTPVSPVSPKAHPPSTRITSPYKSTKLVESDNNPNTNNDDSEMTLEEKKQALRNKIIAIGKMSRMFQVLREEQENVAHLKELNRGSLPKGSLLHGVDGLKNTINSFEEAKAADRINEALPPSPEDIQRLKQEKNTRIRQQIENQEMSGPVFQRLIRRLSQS

[3] = target: Protein-tyrosine kinase 6 (Homo sapiens, UniProt Q13882); format: functional
[4] = target: High affinity nerve growth factor receptor (Homo sapiens, UniProt P04629); format: functional;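 also: NTRK1 tested as one member of a kinome-wide profiling panel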
[5] = target: Cell division cycle 7-related protein kinase (Homo sapiens, UniProt O00311); format: functional;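 also: value obtained from a kinome-wide kinase panel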
[6] = target: LIM domain kinase 1 (Homo sapiens, UniProt P53667); assay: Navigating the Kinome. Panel member name: LIMK1; format: functional
[7] = target: Mast/stem cell growth factor receptor Kit (Homo sapiens, UniProt P10721); format: functional;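 also: KIT entry within a kinase panel assay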
[8] = target: Insulin-like growth factor 1 receptor (Homo sapiens, UniProt P08069); assay: Navigating the Kinome. Panel member name: IGF1R; format: functional
[9] = target: Death-associated protein kinase 3 (Homo sapiens, UniProt O43293); format: functional;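 also: measured as one member of a kinome-wide profiling panel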
[10] = target: Glycogen synthase kinase-3 alpha (Homo sapiens, UniProt P49840); format: functional;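 also: GSK3A result taken from a broad kinome-wide kinase panel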
[11] = target: Mitogen-activated protein kinase kinase kinase kinase 4 (Homo sapiens, UniProt O95819); format: functional
[12] = target: Serine/threonine-protein kinase SIK2 (Homo sapiens, UniProt Q9H0K1); assay: Navigating the Kinome. Panel member name: SIK2; format: functional
[13] = target: Fibroblast growth factor receptor 3 (Homo sapiens, UniProt P22607); format: functional
[14] = target: Cyclin-dependent kinase 19 (Homo sapiens, UniProt Q9BWU1); assay: Navigating the Kinome. Panel member name: CDC2L6; format: functional
[15] = target: Vascular endothelial growth factor receptor 1 (Homo sapiens, UniProt P17948); format: functional;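 also: measured within a kinome-wide profiling panel, FLT1 as the panel member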

Serine/threonine-protein kinase SIK2, sequence (Q9H0K1 whole entry): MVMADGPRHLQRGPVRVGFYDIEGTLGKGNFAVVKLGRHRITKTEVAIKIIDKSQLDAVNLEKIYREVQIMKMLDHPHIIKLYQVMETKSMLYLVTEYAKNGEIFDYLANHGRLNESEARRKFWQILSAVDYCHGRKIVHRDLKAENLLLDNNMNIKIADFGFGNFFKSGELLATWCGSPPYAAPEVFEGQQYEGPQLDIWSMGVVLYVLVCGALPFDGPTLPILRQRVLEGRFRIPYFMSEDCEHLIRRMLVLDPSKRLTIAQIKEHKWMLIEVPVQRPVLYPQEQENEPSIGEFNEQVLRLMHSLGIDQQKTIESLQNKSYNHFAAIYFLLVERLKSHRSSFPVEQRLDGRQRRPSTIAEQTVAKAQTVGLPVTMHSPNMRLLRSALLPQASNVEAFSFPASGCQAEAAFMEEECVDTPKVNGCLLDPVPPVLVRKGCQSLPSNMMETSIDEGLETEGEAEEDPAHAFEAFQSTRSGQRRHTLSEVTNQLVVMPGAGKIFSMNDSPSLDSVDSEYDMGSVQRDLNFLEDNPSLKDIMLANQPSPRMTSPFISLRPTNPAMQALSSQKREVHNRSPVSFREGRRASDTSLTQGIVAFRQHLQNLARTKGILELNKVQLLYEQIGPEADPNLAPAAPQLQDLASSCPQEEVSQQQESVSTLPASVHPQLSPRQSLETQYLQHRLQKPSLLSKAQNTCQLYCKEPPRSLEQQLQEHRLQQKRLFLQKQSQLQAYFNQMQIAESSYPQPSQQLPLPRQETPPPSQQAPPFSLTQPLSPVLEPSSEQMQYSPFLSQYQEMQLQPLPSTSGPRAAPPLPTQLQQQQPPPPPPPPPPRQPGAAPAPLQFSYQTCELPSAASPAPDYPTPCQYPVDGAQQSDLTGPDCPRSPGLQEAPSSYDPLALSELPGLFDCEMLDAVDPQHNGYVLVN
Glycogen synthase kinase-3 alpha, sequence (P49840 whole entry): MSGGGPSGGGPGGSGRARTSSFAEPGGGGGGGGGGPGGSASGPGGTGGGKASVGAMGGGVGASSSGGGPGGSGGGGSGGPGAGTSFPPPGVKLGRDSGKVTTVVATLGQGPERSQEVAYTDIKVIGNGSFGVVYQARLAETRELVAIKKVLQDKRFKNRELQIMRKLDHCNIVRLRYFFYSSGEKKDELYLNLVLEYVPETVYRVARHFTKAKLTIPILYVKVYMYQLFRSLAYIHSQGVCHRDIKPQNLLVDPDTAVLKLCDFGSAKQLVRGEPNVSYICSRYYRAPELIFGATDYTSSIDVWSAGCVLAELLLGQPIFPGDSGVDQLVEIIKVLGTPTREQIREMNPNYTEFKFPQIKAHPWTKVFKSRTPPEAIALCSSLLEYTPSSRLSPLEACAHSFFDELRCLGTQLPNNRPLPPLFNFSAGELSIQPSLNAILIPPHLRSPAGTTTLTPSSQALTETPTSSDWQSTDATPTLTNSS
LIM domain kinase 1, sequence (P53667 whole entry, the tested form may be a part): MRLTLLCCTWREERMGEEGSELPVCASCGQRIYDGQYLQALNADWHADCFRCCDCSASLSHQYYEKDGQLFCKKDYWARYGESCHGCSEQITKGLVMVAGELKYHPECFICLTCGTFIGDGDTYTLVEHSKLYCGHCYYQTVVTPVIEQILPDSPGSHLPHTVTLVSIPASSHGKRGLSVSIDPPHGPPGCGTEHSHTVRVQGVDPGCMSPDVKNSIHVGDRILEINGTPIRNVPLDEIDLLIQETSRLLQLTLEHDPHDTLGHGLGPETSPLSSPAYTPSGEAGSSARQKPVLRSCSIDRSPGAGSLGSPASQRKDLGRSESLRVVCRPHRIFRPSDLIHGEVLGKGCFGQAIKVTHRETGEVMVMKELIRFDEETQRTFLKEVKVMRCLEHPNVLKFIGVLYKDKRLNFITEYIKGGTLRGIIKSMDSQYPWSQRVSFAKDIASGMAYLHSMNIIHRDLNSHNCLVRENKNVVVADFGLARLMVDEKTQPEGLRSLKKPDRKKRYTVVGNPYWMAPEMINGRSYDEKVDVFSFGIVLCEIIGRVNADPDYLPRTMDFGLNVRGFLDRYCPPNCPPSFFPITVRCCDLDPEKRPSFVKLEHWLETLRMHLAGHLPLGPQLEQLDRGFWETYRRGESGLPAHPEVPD
Cell division cycle 7-related protein kinase, sequence (O00311 whole entry, the tested form may be a part): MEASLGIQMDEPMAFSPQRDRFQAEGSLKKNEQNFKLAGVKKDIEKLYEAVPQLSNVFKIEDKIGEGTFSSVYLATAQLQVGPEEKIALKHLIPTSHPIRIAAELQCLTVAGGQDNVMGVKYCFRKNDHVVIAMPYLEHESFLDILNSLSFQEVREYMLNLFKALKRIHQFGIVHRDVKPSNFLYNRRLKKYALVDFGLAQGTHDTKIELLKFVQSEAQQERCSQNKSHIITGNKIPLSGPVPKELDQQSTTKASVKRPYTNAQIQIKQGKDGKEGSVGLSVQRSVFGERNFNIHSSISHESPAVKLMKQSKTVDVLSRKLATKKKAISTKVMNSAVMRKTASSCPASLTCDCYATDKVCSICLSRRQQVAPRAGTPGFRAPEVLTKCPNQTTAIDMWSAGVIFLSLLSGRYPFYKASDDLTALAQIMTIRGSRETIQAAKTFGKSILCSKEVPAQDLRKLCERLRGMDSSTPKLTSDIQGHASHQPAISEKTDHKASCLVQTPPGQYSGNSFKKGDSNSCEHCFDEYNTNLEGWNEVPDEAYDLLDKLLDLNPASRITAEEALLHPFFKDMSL
Insulin-like growth factor 1 receptor, sequence (P08069 31-736 limits assumed): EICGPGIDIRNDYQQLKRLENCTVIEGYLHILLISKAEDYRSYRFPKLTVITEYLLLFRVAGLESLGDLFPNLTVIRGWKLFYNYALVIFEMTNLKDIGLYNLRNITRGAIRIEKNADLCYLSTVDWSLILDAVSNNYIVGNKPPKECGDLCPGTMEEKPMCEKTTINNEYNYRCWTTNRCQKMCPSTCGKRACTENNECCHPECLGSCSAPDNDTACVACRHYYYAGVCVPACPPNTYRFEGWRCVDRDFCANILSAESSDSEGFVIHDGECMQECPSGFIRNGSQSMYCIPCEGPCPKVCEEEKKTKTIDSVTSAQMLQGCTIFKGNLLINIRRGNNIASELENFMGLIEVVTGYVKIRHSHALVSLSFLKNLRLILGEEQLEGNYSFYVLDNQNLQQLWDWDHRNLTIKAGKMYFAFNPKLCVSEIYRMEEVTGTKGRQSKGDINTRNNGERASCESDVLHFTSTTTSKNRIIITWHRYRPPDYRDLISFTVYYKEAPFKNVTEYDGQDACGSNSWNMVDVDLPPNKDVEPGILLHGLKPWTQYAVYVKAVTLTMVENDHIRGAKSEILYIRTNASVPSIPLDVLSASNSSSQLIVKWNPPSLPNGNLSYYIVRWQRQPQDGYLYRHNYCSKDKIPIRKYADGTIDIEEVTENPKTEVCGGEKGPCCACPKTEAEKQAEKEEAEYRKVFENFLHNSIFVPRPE
Insulin-like growth factor 1 receptor, sequence (P08069 741-1367 limits assumed): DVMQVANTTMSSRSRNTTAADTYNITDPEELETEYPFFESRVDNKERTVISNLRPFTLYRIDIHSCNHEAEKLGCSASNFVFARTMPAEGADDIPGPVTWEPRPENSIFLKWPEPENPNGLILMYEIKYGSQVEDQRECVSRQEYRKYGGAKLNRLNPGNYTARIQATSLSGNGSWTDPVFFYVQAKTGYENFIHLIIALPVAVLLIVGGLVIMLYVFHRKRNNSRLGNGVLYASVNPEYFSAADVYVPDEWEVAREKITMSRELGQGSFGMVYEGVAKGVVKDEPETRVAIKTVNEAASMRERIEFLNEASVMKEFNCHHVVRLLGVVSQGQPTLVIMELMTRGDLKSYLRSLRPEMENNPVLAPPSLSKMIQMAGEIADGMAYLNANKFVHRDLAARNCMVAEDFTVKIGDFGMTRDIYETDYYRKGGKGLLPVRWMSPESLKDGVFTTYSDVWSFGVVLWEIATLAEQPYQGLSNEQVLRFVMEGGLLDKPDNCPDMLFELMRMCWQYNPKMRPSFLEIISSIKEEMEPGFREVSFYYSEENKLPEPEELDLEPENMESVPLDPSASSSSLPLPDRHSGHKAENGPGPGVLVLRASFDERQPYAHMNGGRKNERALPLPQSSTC
High affinity nerve growth factor receptor, sequence (P04629 whole entry): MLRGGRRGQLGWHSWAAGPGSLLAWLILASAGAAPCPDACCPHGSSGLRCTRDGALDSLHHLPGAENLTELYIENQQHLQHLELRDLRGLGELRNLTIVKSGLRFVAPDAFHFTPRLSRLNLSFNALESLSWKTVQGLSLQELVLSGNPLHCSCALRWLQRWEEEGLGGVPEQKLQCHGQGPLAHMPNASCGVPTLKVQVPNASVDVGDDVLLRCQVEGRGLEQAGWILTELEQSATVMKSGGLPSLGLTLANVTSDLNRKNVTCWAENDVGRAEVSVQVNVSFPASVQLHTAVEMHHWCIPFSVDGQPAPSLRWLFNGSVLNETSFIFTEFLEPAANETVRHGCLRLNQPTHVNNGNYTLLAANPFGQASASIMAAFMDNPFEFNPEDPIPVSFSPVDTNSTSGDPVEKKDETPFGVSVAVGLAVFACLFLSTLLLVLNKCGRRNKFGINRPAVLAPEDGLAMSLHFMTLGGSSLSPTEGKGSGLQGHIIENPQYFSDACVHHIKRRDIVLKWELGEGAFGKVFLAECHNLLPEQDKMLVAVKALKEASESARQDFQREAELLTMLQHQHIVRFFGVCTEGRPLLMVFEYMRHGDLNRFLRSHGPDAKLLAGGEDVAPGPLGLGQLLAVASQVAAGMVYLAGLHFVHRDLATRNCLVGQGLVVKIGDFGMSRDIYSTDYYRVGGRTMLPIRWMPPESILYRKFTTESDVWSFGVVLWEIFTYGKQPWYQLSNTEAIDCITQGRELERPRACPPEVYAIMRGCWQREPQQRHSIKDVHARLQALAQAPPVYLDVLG

Structure (SMILES)	AC50 [1]	EC50 [2]	Ki [3]	Ki [4]	Ki [5]	Ki [6]	Ki [7]	Ki [8]	Ki [9]	Ki [10]	Ki [11]	Ki [12]	Ki [13]	Ki [14]	Ki [15]
CCCn1nc([N+](=O)[O-])c(C(C#N)c2nc3ccccc3s2)c(Cl)c1=O (stereo not given)	4720 nM (active)	> 180000 nM (inactive)	–	–	–	–	–	–	–	–	–	–	–	–	–
NCCCn1cc(-c2cc(-c3cc4ccccc4s3)c3[nH]ncc3c2)c2nc(N)ncc21	–	–	> 2510 nM (inactive)	> 2510 nM (inactive)	12.6 nM (active)	1260 nM (active)	> 3160 nM (inactive)	> 2000 nM (inactive)	79.4 nM (active)	126 nM (active)	> 3160 nM (inactive)	251 nM (active)	> 2000 nM (inactive)	398 nM (active)	> 2510 nM (inactive)

— ChEMBL document CHEMBL1201862, “PubChem BioAssay data set” (2004)
